Data set [1] concerns the target T1, multidrug and toxin extrusion protein (MATE) 1 (SLC47A1) (Homo sapiens, UniProt Q96FL8).
T1 sequence (Q96FL8 1-570): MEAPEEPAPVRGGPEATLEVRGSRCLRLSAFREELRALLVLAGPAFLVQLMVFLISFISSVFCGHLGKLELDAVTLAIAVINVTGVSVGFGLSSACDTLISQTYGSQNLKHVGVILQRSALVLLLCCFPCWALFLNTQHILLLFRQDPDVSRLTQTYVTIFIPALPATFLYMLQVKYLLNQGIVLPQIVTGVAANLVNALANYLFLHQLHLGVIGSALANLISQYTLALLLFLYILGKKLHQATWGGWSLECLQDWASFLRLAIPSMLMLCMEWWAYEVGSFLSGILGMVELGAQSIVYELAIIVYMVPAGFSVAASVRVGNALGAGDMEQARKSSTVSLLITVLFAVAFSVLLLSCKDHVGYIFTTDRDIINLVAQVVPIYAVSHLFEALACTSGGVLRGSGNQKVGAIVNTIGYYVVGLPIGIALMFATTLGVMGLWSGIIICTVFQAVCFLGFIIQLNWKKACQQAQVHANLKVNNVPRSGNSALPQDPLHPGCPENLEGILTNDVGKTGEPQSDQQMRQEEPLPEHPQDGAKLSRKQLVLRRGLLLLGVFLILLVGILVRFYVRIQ
Set-up: method as in Kusuhara et al. 2011; Ito et al. 2012; Müller et al. 2015. Particulars: ref Kusuhara et al. 2011; Ito et al. 2012; Müller et al. 2015; cited from earlier work.

Data set [2] is described as follows: Perpetrator drug plasma Cmax in clinical interaction studies with metformin. As to conditions: f u × C max. It counts as in vivo, human.
The conditions of data set [3]: cited from earlier work; for increase in the plasma exposure (AUC) of metformin in clinical DDIs: ref Somogyi et al. 1987, Wang et al. 2008, Grün et al. 2013, Müller et al. 2015, Kusuhara et al. 2011.
Data set [4] concerns the target T2, human organic cation transporter (OCT) 1 (SLC22A1) (Homo sapiens, UniProt O15245).
T2 sequence (O15245 1-554): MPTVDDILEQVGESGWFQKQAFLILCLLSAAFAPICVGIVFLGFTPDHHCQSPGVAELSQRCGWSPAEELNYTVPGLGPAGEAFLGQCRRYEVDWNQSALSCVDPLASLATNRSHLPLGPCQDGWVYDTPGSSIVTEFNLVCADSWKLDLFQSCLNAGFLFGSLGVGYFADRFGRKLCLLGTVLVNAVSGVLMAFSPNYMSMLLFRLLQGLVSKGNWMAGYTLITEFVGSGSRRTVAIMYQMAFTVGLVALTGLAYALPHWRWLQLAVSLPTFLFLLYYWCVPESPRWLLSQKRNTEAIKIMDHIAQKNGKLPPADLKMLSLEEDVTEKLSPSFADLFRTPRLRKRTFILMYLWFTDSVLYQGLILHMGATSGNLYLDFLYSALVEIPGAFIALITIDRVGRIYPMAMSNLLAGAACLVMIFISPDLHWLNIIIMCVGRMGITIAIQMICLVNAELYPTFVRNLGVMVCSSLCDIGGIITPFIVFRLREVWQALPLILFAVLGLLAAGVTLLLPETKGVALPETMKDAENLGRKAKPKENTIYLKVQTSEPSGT
The experiment in a line: cell-based.

For data set [5] the following is noted: read-out: [C max] mean steady-state total plasma concentration, cited from earlier work.
For data set [6] the following is noted: cited from earlier work.
Another data set concerns Caco‐2 cell monolayers. Kind of data set: Metformin apparent permeability across polarised Caco-2 cell monolayers with and without inhibitors. It counts as in vitro ADME. As to conditions: therapeutic intestinal concentrations of inhibitor. As for the experimental part: (§1) Caco‐2 cells between passage numbers 50–60 were used for experiments. Cells were seeded in cell culture medium (consisting of DMEM supplemented with 10% (w/v) fetal bovine serum, 2 mmol/L L‐glutamine, 1% (v/v) nonessential amino acids, 50 U/mL penicillin and 50 μg/mL streptomycin) onto Millicell‐96 multiwell insert plates at 1 × 10^5 cells/cm^2 and cultured at 37°C in an atmosphere of 5% CO2 with a relative humidity of 95 %. Media was changed every two or three days and plates were used for transport studies on day 20 postseeding. Cell monolayers were washed twice with prewarmed (37°C) transport buffer (HBSS containing 25 mmol/L HEPES and 4.45 mmol/L glucose, pH 7.4) for basolateral compartments and prewarmed MES‐transport buffer (HBSS containing 10 mmol/L MES and 4.45 mmol/L glucose, pH 6.5) for apical compartments. […] Transport buffer or MES‐transport buffer containing DMSO or test inhibitor was added to the corresponding receiver compartments. Donor and receiver solutions contained a final DMSO concentration of ≤1 % (v/v). […] The amount of lucifer yellow appearing in the receiver compartments was quantified on a fluorescence plate reader and used to calculate permeation across the cell monolayer.

Data set [7] deals with T1, multidrug and toxin extrusion protein (MATE) 1 (SLC47A1). The experiment in a line: In vitro SLC transporter inhibition: MATE1-mediated [14C]-metformin uptake. Type of data set: cell-based.
Data set [8] has the same target. As to conditions: MATE1-mediated metformin uptake, 1.5 min, 37°C; ±SE from fitting.
The target in the next data set is MATE2‐K (SLC47A2) (Homo sapiens, UniProt Q86VL8). As to conditions: MATE2-K-mediated metformin uptake, 1.5 min, 37°C; ±SE from fitting.
For a further data set, the system named is Oct1/2. Set-up: method as in Higgins et al. 2012. As to conditions: oral administration; ref Higgins et al. 2012; cited from earlier work.
Data set [9] is described as follows: Metformin human mass balance and renal clearance. Type of data set: in vivo.
The next data set has as its system Mate1. Set-up: method as in Tsuda et al. 2009a. Particulars: intravenous administration; ref Tsuda et al. 2009a; cited from earlier work.
The conditions of data set [10]: oral metformin human mass balance, average; ref Pentikäinen et al. 1979; Tucker et al. 1981; Kusuhara et al. 2011; cited from earlier work.
Data set [11] in a line: Metformin apparent permeability across polarised Caco-2 cell monolayers with and without inhibitors. It counts as in vitro ADME. Particulars: human, Caco-2, pH 6.5. The method, then: as §1
[12] abbreviates: first-listed (or only) clinical study.

Where two headings read alike, the source gives them in different places. Marks after values point to notes of the source that are not given here.

MATE2‐K (SLC47A2), sequence (Q86VL8 1-566 isoform Q86VL8-3): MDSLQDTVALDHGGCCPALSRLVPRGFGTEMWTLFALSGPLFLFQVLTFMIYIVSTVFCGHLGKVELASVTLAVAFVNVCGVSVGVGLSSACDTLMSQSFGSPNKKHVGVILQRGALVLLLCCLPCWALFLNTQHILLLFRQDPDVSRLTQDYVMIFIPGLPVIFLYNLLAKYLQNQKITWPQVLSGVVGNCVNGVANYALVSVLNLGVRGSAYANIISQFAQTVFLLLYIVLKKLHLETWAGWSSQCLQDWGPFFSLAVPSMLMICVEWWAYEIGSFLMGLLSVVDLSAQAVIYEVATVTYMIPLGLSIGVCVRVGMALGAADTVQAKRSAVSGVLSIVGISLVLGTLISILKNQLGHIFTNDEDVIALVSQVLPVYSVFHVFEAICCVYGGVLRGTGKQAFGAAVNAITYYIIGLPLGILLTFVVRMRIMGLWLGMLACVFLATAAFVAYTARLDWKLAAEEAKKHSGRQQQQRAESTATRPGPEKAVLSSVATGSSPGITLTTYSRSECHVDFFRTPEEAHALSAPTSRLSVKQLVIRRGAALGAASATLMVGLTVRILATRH

Turning to `CN/C(=N/CCSCc1nc[nH]c1C)NC#N` [Cimetidine, cimetidine], the “mode of inhibition of MATE1” value in [1] is “competitive inhibitors”. The “[C max free]” value in data set [2] (setting [12]) was determined as 7.68 µmol/L; in data set [2] (second-listed clinical study) it was 4.08 µmol/L. In addition, the “increase in the plasma exposure (AUC) of metformin in clinical DDIs” value (“increase in the plasma exposure (AUC)” below) in [3] is reported as under 2 fold. In addition, half-maximal inhibition in data set [4] (IC50) required 275 ± 32.2 µM. For the same molecule, the Cmax in data set [5] (cimetidine 400 mg, first value, study with metformin 250 mg, ref Somogyi et al. (1987)) was 9.6 µM; in [5] (cimetidine 400 mg, second value, study with metformin 500 mg, ref Wang et al. (2008)), 5.1 µM. Also, the “f u (fraction unbound)” value in data set [6] (ref Somogyi and Gugler (1983)) is 0.80 ^a. Moreover, the “effect on enhancing metformin absorptive permeability across Caco‐2 cells” value in the data set with Caco‐2 cell monolayers is “absence of an effect”.

Consider `CCc1nc(N)nc(N)c1-c1ccc(Cl)cc1` [Pyrimethamine, pyrimethamine], for which, in [1], the “mode of inhibition of MATE1” value is on record as “competitive inhibitors”. Also, the “[C max free]” value in data set [2] (setting [12]) amounted to 0.298 µmol/L. In addition, in [3], the “increase in the plasma exposure (AUC)” value is on record as under 2 fold. In data set [4], this molecule returned an IC50 of 4.46 ± 0.77 µM. Further, the “MATE1 K i” value in data set [7] (equates to IC50 (probe ≪≪ Km, assuming competitive inhibition)) came out at 0.131 µmol/L. Further, in [7] (probe [14C]-metformin 100 μmol/L, 1.5 min, mean ± SD of three experiments), the “IC50 (≅K i) values MATE1” value worked out at 0.131 ± 0.0401 µmol/L. Moreover, in data set [5] (pyrimethamine 50 mg, study with metformin 250 mg, ref Kusuhara et al. (2011)), the Cmax was 2.29 µM. Also, the “effect on enhancing metformin absorptive permeability across Caco‐2 cells” value in the data set on Caco‐2 cell monolayers is “absence of an effect”.

As to `COc1cc(Cc2cnc(N)nc2N)cc(OC)c1OC` [Trimethoprim, trimethoprim], the “[C max free]” value came out at 7.84 µmol/L in data set [2] (setting [12]) and 4.26 µmol/L in data set [2] (second-listed clinical study). Further, the “increase in the plasma exposure (AUC)” value in data set [3] is under 2 fold. Also, the “f u (fraction unbound)” value in data set [6] (ref Bactrim and Daraprim drug labels (Drugs@FDA database)) is recorded as 0.56. Also, in the data set with Caco‐2 cell monolayers, the “effect on enhancing metformin absorptive permeability across Caco‐2 cells” value is given as “absence of an effect”.

Regarding `CN(C)C(=N)N=C(N)N` [metformin, Metformin], the K m in data set [8] came to 4.565 ± 0.903 mM; at MATE2‐K (SLC47A2) it was 2986 ± 817 µmol/L. In addition, the V max in data set [8] worked out at 141000 ± 12283 pmol/min/mg protein; on MATE2‐K (SLC47A2), 32147 ± 3401 pmol/min/mg protein. Also, the “increase in metformin AUC in Oct1/2(−/−) mice” value in the data set with Oct1/2 is on record as 2.9 fold. Besides, the “fraction excreted value, ƒe, renal active transport” value is reported as 0.66 in data set [9] (derived from intravenous administration of metformin) and 0.39 in data set [9] (derived from oral administration of metformin). Also, the “increase in metformin AUC in Mate1(−/−) null mice compared with wildtype” value with Mate1 is recorded as 4.2 fold. For the same molecule, the “share of the dose eliminated in urine” value in data set [10] is 52%. Moreover, the Papp A→B at 90 min in data set [11] (read-out: Papp A‐B (apical to basolateral)) is about 0.5 ×10⁻⁶ cm/s. The Papp B→A at 90 min in data set [11] (read-out: Papp B‐A (basolateral to apical)) was about 0.5 ×10⁻⁶ cm/s.

With `CNC(=C[N+](=O)[O-])NCCSCc1csc(CN(C)C)n1` [nizatidine], the “effect on metformin AUC in clinical interaction study” value in data set [3] (ref Morrissey et al. 2016) is “did not increase metformin AUC”.

Source of the values: PMC5625161 (Pharmacology Research & Perspectives, 2017).
